Assay results as given in article PMC2699550, “Bacterial Ortholog of Mammalian Translocator Protein (TSPO) with Virulence Regulating Activity” (PLoS ONE, 2009).

Molecular target: T1, bacterial TSPO (P. fluorescens MF37 TSPO)
T1 construct: native protein in bacterial membranes; 438 bp fragment encoding 146 residues; theoretical 17 kDa, 37 kDa band on SDS-PAGE, apparent dimer
Assay: [3H]-PK […] saturation binding, Scatchard, bacterial membranes
Type: biochemical, Pseudomonas fluorescens
Settings: labelled compound; native membranes, 50 mM Tris-HCl pH 7.4; 0.6 to 59 nM tracer; non-specific with 30 µM PK 11195

**Q.** For `CCC(C)N(C)C(=O)c1cc2ccccc2c(-c2ccccc2Cl)n1` (stereo not shown) [PK 11195], which Kd is on record?
**A.** 0.92 nM
